# Experimental data taken from publication PMC3785478, “Crystal Structures of Human Muscle Fructose-1,6-Bisphosphatase: Novel Quaternary States, Enhanced AMP Affinity, and Allosteric Signal Transmission Pathway” (PLoS ONE, 2013).
# pIC50: −log10 of the molar value.
# How the values were obtained:
# [1] = biological target: T1, human muscle fructose-1,6-bisphosphatase (hmFru-1,6-Pase) (Homo sapiens, UniProt O00757); test: coupled enzyme assay (G6PDH/phosphoglucose isomerase, NADP, […] nm), AMP titration; type: biochemical; settings: read-out: Wild-type Fru-1,6-Pase
# T1 construct: gene FBP2
# T1 sequence (O00757 1-339): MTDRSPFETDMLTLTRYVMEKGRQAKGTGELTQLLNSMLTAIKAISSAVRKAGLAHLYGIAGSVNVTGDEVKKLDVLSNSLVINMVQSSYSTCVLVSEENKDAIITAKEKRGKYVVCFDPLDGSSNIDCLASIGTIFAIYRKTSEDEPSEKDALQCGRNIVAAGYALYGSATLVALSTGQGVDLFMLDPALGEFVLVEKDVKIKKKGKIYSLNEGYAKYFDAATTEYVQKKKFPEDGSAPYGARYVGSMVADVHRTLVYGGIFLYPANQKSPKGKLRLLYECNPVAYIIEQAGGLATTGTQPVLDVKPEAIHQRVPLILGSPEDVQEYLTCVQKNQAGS
# [2] = biological target: T2, human muscle fructose-1,6-bisphosphatase (hmFru-1,6-Pase) (Homo sapiens, UniProt O00757, Q33R); test: also coupled enzyme inhibition assay (I0.[…]); type: biochemical
# T2 construct: gene FBP2; model includes residues 11–54 and 72–335
# T2 sequence (O00757 2-339 Q33R): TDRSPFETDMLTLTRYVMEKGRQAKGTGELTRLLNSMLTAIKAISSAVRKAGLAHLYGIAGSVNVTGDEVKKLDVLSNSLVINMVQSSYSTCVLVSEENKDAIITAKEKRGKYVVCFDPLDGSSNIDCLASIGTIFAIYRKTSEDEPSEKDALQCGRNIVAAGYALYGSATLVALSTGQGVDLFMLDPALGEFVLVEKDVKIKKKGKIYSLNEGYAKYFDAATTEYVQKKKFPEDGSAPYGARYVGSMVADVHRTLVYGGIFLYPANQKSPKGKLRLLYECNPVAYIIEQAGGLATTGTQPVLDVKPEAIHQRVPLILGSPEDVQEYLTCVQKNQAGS
smiles,measurement,setting,value
Nc1ncnc2c1ncn2[C@@H]1O[C@H](COP(=O)(O)O)[C@@H](O)[C@H]1O [AMP],pIC50,[1],6.72
same,pIC50,[2],5.44
